The record followed here is ChEMBL document CHEMBL1201862, “PubChem BioAssay data set” (2004).

Test systems include A549; BT-549; COLO 205; KM12; LOX IMVI; Malme-3M; NCI-H23; NCI-H460; NCI-H522; NCI/ADR-RES; OVCAR-3; RPMI-8226; SK-MEL-28; T47D; U-251; HL-60; RXF 393.
Common to all, as to test: NCI anticancer screen, dose series, 48 h

The structures appear in SMILES notation.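 Assay format: 96-well plates, 48-hour exposure. At the GI50, growth is halved.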 Activity calls are given as the source filed them. Rule as the data show it: active = GI50 up to about 1.1 µM and inactive = higher. Bounds are passed on as bounds.

Regarding `COc1ccc(OC)c2c1C=CC(Br)=CC2`, the GI50 was 0.303 µM (active) with A549; 0.303 µM (active) in the assay with BT-549; 0.314 µM (active) with COLO 205; 0.309 µM (active) in the assay on KM12; 0.158 µM (active) with LOX IMVI; 0.145 µM (active) in the assay on Malme-3M. Also, the GI50 in the assay on NCI-H23 is 0.259 µM (active); in the assay with NCI-H460 it was 0.211 µM (active); in the assay on NCI-H522 it was 0.223 µM (active); with NCI/ADR-RES it was 0.296 µM (active); in the assay on OVCAR-3, 0.276 µM (active); in the assay with RPMI-8226, 0.162 µM (active). The GI50 with SK-MEL-28 was 0.35 µM (active); in the assay on T47D it was 0.192 µM (active); in the assay on U-251, 0.43 µM (active).
Consider `CCN(CC)c1c(C(C)(C)C)c(=O)n2ccsc2c1OC(C)=O`, for which the GI50 was 15 µM (inactive) in the assay on A549; 15.5 µM (inactive) in the assay with BT-549; 16.9 µM (inactive) in the assay with COLO 205; 29.4 µM (inactive) with HL-60; 15.5 µM (inactive) in the assay with KM12; 17.4 µM (inactive) in the assay on LOX IMVI. Moreover, the GI50 with Malme-3M was 12.5 µM (inactive); with NCI-H23 it was 16.1 µM (inactive); in the assay on NCI-H460 it was 16.5 µM (inactive); in the assay with NCI-H522, 13.4 µM (inactive); in the assay with NCI/ADR-RES, 13 µM (inactive); in the assay on OVCAR-3, 17.1 µM (inactive). The GI50 is 13.8 µM (inactive) in the assay on RPMI-8226, 16.9 µM (inactive) in the assay with RXF 393, 17.1 µM (inactive) in the assay on SK-MEL-28 and 17 µM (inactive) with U-251.
On to `CC1C2(C)OC(=N)C(C#N)(C(C)O2)C1(C#N)C#N` (stereo unspecified), for which the GI50 with A549 is 79.1 µM (inactive); in the assay on BT-549, 31.6 µM (inactive); in the assay on COLO 205, 12.1 µM (inactive); in the assay on HL-60 it was 14.1 µM (inactive); with KM12 it was 49.8 µM (inactive); in the assay on LOX IMVI it was 19.5 µM (inactive). Further, the GI50 in the assay on Malme-3M was 25 µM (inactive); in the assay with NCI-H23, 28.8 µM (inactive); with NCI-H460, 19.6 µM (inactive); in the assay with NCI/ADR-RES, 77.1 µM (inactive); in the assay on OVCAR-3, 24.5 µM (inactive); in the assay on RXF 393 it was 18.2 µM (inactive). Moreover, the GI50 was 27.4 µM (inactive) with SK-MEL-28, 30.1 µM (inactive) with T47D and 21.4 µM (inactive) in the assay with U-251.
As for `CCOc1ccc2ccccc2c1NC1=NCCO1`, the GI50 is 61 µM (inactive) with A549; 36.6 µM (inactive) with COLO 205; 19.9 µM (inactive) in the assay with HL-60; 24.9 µM (inactive) with KM12; 39.5 µM (inactive) in the assay on Malme-3M; 28.8 µM (inactive) in the assay on NCI-H23. The GI50 was 12.7 µM (inactive) in the assay on NCI-H460; 70.3 µM (inactive) in the assay with NCI/ADR-RES; 19.5 µM (inactive) in the assay on RPMI-8226; 98.6 µM (inactive) with RXF 393; > 100 µM (inactive) in the assay on SK-MEL-28; 29.7 µM (inactive) in the assay with T47D. The GI50 in the assay on U-251 is 45.3 µM (inactive).
In the case of `CC(Cc1ccccc1)N(C)Cc1nc(C2CCC([N+](=O)[O-])O2)no1` (stereo unspecified), the GI50 was 12.1 µM (inactive) in the assay on A549; 3.72 µM (inactive) with COLO 205; 6.49 µM (inactive) in the assay with HL-60; 4.55 µM (inactive) with KM12; 3.19 µM (inactive) in the assay with LOX IMVI; 11.9 µM (inactive) in the assay with Malme-3M. For the same molecule, the GI50 in the assay with NCI-H23 was 5.18 µM (inactive); with NCI/ADR-RES, 11.9 µM (inactive); in the assay on RPMI-8226 it was 14.8 µM (inactive); with RXF 393 it was 19 µM (inactive); in the assay on SK-MEL-28, 11.9 µM (inactive); in the assay with T47D, 19.1 µM (inactive). In the assay with U-251, the GI50 was 10.2 µM (inactive).
On to `CC(C)CC(C#CCCOC(=O)c1ccccc1)OC(=O)c1ccccc1` (stereo unspecified), for which the GI50 with A549, in the assay on BT-549, with HL-60, in the assay with KM12, in the assay with LOX IMVI and in the assay with Malme-3M was > 10 µM (inactive) in each case. Besides, the GI50 in the assay with NCI-H23, with NCI-H460, in the assay with OVCAR-3, with RXF 393, in the assay on SK-MEL-28 and in the assay with T47D was > 10 µM (inactive) each time. Moreover, the GI50 with U-251 was > 10 µM (inactive).
In the case of `Cc1ccc(Nc2nc(N)nc3c2ncn3C2OC(CO)C(O)C2O)cc1` (stereo unspecified), the GI50 in the assay with A549, in the assay on COLO 205, in the assay with HL-60, with KM12, in the assay on LOX IMVI and with Malme-3M was > 100 µM (inactive) throughout. Besides, the GI50 in the assay on NCI-H23, with NCI-H522, in the assay with NCI/ADR-RES, with OVCAR-3, in the assay on RPMI-8226 and with RXF 393 was > 100 µM (inactive) in each case. Also, the GI50 in the assay with SK-MEL-28, with T47D and with U-251 was > 100 µM (inactive) each time.
Take `COc1ccc(/C=C2/CCS(=O)(=O)c3ccc(C)cc3C2=O)cc1OC`: the GI50 with A549 was 25.9 µM (inactive); in the assay with BT-549, 9.27 µM (inactive); with COLO 205 it was 14.2 µM (inactive); with HL-60 it was 10.4 µM (inactive); in the assay on KM12 it was 11 µM (inactive); with LOX IMVI, 8.11 µM (inactive). For the same molecule, the GI50 in the assay with NCI-H23 is 12.5 µM (inactive); in the assay on NCI-H460, 7.74 µM (inactive); with NCI/ADR-RES, 11.8 µM (inactive); in the assay on OVCAR-3 it was 28.1 µM (inactive); in the assay on RPMI-8226, 11.7 µM (inactive); with RXF 393 it was 12.9 µM (inactive). Further, the GI50 was 17.2 µM (inactive) in the assay on SK-MEL-28, 13.2 µM (inactive) in the assay with T47D and 12.8 µM (inactive) in the assay with U-251.
For the molecule `O=C1Nc2ccccc2C1Cc1ccccc1` (stereo unspecified), the GI50 in the assay on A549, in the assay on COLO 205, in the assay with HL-60, in the assay on KM12, in the assay with LOX IMVI and in the assay on Malme-3M was > 100 µM (inactive) in each case. Further, the GI50 with NCI-H23, in the assay on NCI-H460, with NCI-H522, with OVCAR-3, with RPMI-8226 and with SK-MEL-28 was > 100 µM (inactive) in each case. Moreover, the GI50 with T47D is 88.7 µM (inactive); in the assay on U-251 it was > 100 µM (inactive).
Take `Cc1ccc(S(=O)(=O)N(CC(O)COc2ccccc2)c2c(F)c(F)c(F)c(F)c2F)cc1` (stereo unspecified): the GI50 with A549 was 13.4 µM (inactive); with BT-549, 13.5 µM (inactive); in the assay with COLO 205, 16.3 µM (inactive); with HL-60, 6.32 µM (inactive); with KM12 it was 20.7 µM (inactive); with LOX IMVI it was 13.9 µM (inactive). Also, the GI50 is 22.8 µM (inactive) with Malme-3M; 14.4 µM (inactive) in the assay on NCI-H23; 14.4 µM (inactive) in the assay on NCI-H460; 17 µM (inactive) in the assay on NCI/ADR-RES; 17.3 µM (inactive) in the assay on OVCAR-3; 1.04 µM (active) in the assay on RPMI-8226. The GI50 is 16.9 µM (inactive) with SK-MEL-28, 18 µM (inactive) in the assay with T47D and 13.2 µM (inactive) with U-251.
On to `N=C(N)c1ccc(/N=N/c2c(O)ccc3cc(O)ccc23)cc1`, for which the GI50 in the assay on A549 was > 100 µM (inactive); in the assay with BT-549 it was > 100 µM (inactive); in the assay with COLO 205, > 100 µM (inactive); with HL-60 it was > 100 µM (inactive); in the assay on KM12, > 100 µM (inactive); with Malme-3M it was 56.2 µM (inactive). Further, the GI50 with NCI-H460, with NCI-H522, in the assay on NCI/ADR-RES, with OVCAR-3, in the assay with RPMI-8226 and with RXF 393 was > 100 µM (inactive) in each case. For the same molecule, the GI50 in the assay with SK-MEL-28 and in the assay with U-251 was > 100 µM (inactive) throughout.
As for `CCOC(=O)C(NC(=O)CC)(Nc1cc(C)on1)C(F)(F)F` (stereo unspecified), the GI50 in the assay on A549, with BT-549, in the assay with COLO 205, in the assay on HL-60, with LOX IMVI and in the assay with NCI-H23 was > 100 µM (inactive) each time. The GI50 in the assay with NCI/ADR-RES, in the assay on RPMI-8226, in the assay on RXF 393, with SK-MEL-28, in the assay on T47D and in the assay on U-251 was > 100 µM (inactive) throughout.
Turning to `O=C(c1ccccc1)N1CCC(Nc2cccnc2)O1` (stereo unspecified), the GI50 in the assay with A549 is > 100 µM (inactive); in the assay on BT-549, > 100 µM (inactive); in the assay on HL-60 it was > 100 µM (inactive); in the assay with KM12 it was > 100 µM (inactive); in the assay on Malme-3M, 60.3 µM (inactive); in the assay on NCI-H23, > 100 µM (inactive). Further, the GI50 with NCI-H460 is > 100 µM (inactive); with NCI/ADR-RES it was > 100 µM (inactive); with OVCAR-3 it was > 100 µM (inactive); with RXF 393, > 100 µM (inactive); in the assay on SK-MEL-28, > 100 µM (inactive); in the assay with T47D it was 92.9 µM (inactive). The GI50 in the assay on U-251 was > 100 µM (inactive).
In the case of `Cc1cn(C2CC(N)C(C(=O)O)O2)c(=O)[nH]c1=O` (stereo unspecified), the GI50 in the assay with A549, with BT-549, in the assay with COLO 205, in the assay on HL-60, in the assay with KM12 and with Malme-3M was > 100 µM (inactive) throughout. In addition, the GI50 in the assay with NCI-H23, with NCI-H460, with NCI-H522, in the assay on NCI/ADR-RES, in the assay with OVCAR-3 and in the assay with RPMI-8226 was > 100 µM (inactive) in each case. Also, the GI50 in the assay on U-251 was > 100 µM (inactive).
